Patent US8501424B2, “Cd4+ epitopes of bone morphogenetic proteins” (Danisco US Inc., priority 2003, dated 2013)

Assays:
CD4+ T-cells = assay: I-MUNE T-cell proliferation assay (dendritic cells + autologous CD4+ T-cells + 15-mer peptides, tritiated thymidine); type: cell-based, human; design: key to epitope designation: major: response rate within the tested donor pool is at least three standard deviations above the mean background response rate; moderate: response rate within the tested donor pool is at least two standard deviations above the mean or three times the background; minor: response rate within the tested donor pool is at least twice the background; details: 83 donors; for structure value: 15-mer peptide sets, 5 μg/ml, positive response SI >= 2.95, analysis method (QC/non-QC) not stated at place
Text: Full length amino acid sequences of human BMP-7 (GenBank Accession No. P18075) and BMP-14 (GenBank Accession No. P43026) precursor proteins were used to create 15-mer peptide sets. These variant peptides were synthesized by Mimotopes, using the multi-pin synthesis technique known in the art (See e.g., Maeji et al., J. Immunol. Meth., 134:23-33 [1990]). The 15-mer peptides were created such that sequences with adjacent peptides shared 12 amino acids (i.e., each peptide was offset by three amino acids). Peptides were diluted with DMSO to provide a stock concentration of approximately 2 mg/ml. The final concentration of peptides used in each assay was 5 μg/ml.
Fresh human peripheral blood cells were collected from 83 community donors. These cells were tested to determine antigenic epitopes in BMP-7 and BMP-14, as described in Example 3, below.
Peripheral mononuclear blood cells (PBMCs) (stored at room temperature, no older than 24 hours) were prepared for use as follows. PBMCs were isolated from buffy coat material by centrifuging over an underlay of LYMPHOPREP™ at 1000×g for 30 minutes. The interface layer was collected and washed and counted using the CELL-DYN® 3700 System (Abbott). Then, suspensions containing 10^8 PBMCs resuspended in 30 ml of AIM-V (Invitrogen) were prepared and the cells were allowed to adhere to plastic T-75 culture flasks for two hours. The remainder of the cells were frozen at 5×10^7 cells/ml in 90% FCS (Gibco/BRL) and 10% DMSO (Sigma).
After the two hour PBMC incubation period, non-adherent cells were removed from the culture flasks. The adherent cells were cultured in the flasks with 800 units/ml recombinant human GM-CSF (Endogen) and 100 units/ml recombinant human IL4 (Endogen) at 37° C., 5% CO2. On day 5 of incubation, 50 units/ml recombinant human Il-1α (Endogen) and 0.2 units/ml recombinant human TNF-α were added to the cultures. Adherent and non-adherent dendritic cells were harvested, washed, and counted on day 7, following a one-hour treatment with […] mitomycin C (Sigma) and 10 mM EDTA.
Autologous CD4+ T-cells were prepared from frozen aliquots of PBMCs. After thawing and washing in DPBS, CD4+ T-cells were isolated using a commercially available CD4 negative selection kit (Dynal), according to the manufacturer's instructions. Cells were counted using the Abbott CELL-DYN® 3700 System. The purity obtained using these methods was generally found to be greater than 90%.
This Example describes the assay system used in the present invention. This test system is also referred to as the “I-MUNE®” assay system. In 96-well, round bottom plates, autologous dendritic cells and CD4+ T-cells were combined with test peptides. More specifically, in a volume of 100 μl/well, 2×10^4 dendritic cells in AIM V were combined with individual peptides (at a final peptide concentration of 5 μg/ml and a final DMSO concentration of 0.25%). After a one-hour incubation at 37° C., 5% CO2, 2×10^5 CD4+ T-cells were added to the culture for a total volume of 200 μl. Negative control wells contained dendritic cells, CD4+ T-cells and 0.25% DMSO. Positive control wells contained dendritic cells, CD4+ T-cells (at the same concentrations as the test wells) and 0.25% DMSO with 0.4 μg/ml tetanus toxoid (List). Individual peptides were tested in duplicate for each donor.
After 5 days of incubation at 37° C., 5% CO2, the cultures were pulsed with 0.25 μCi/well tritiated thymidine (Perkin Elmer). After a subsequent 24 hours of incubation, plates were harvested and assessed for incorporation of the tritiated thymidine (i.e., T-cell proliferation) using a Wallac MICROBETA® TriLux liquid scintillation counter (Perkin Elmer).
For each individual buffy coat sample, the average CPM values for all of the peptides were analyzed. The average CPM values for each peptide were divided by the average CPM value for the control (DMSO only) wells to determine the “stimulation index” (SI). […]

[1] = test system: HLA Class II antigens at DRB1 and DQB1; assay: HLA associations of proliferative responses to epitope peptides; type: cell-based, human; details: for relative risk (RR): 83 donors
Description: In addition to the above analyses, the HLA associations with BMP-7 and BMP-14 epitope peptides were determined. In these experiments, the proliferative response data to five epitope peptides (#3, #7, #8, #16 and #31) were tested in 83 donors for which the expression of HLA Class II antigens at DRB1 and DQB1 was also tested. For four of the peptides, the reaction was assessed by two methods (i.e., “QC” and “non-QC,” “[nQC”] as described above). The statistically significant associations found by both methods were as follows. For epitope #3 and DR11, the relative risk (RR) was 6.25; p<0.0005 [QC], RR=4.17 p<0.005 [nQC]. For epitope #3 and DQ2, the RR was 0.17 p<0.04 [QC], RR=0.13 p<0.01 [nQC]. For epitope #3 and DQ9, the RR was 6.67 p<0.003 [QC]; RR=4.85 p<0.013 [nQC]. For epitope #8 and DR11, the RR was 6.6 p<0.0003. For epitope #31 and DR7, the RR was 8.32 p<0.001 [QC]; RR=4.44 p<0.002 [nQC].
In addition the average stimulation index (SI) was higher among DR11+ than among DR11− donors for peptide #3 (QC) (5.8 fold, p<0.0004) and peptide #8 (2.3 fold p<0.007). Also the average SI was higher among DR7+ than among DR7− donors for peptide #31 (QC) (2.7 fold p<0.0007).

[2] = patients treated for spinal problems; cited from earlier work

Molecule: SNVILKKYRNMVVRA (BMP-7 epitope) [Peptide 41]
- epitope designation (CD4+ T-cells): minor
- statistical significance of peptide response (Poisson, cut-off p<0.05) (CD4+ T-cells; QC method): did not reach the p<0.05 cut-off

Molecule: PLRSHLEPTNHAVIQ (BMP-14 epitope) [Peptide 19]
- epitope designation (CD4+ T-cells): minor
- statistical significance of peptide response (Poisson, cut-off p<0.05) (CD4+ T-cells; QC method): did not reach the p<0.05 cut-off

Molecule: SPISILFIDSANNVV (BMP-14 epitope) [Peptide 31]
- relative risk (RR) ([1]; DR7, QC, p<0.001): 8.32
- relative risk (RR) ([1]; DR7, nQC, p<0.002): 4.44
- average SI higher among DR7+ than among DR7− donors ([1]; QC, p<0.0007): 2.7 fold

Molecule: SHLEPTNHAVIQTLM (BMP-14 epitope) [Peptide 20]
- epitope designation (CD4+ T-cells): minor
- statistical significance of peptide response (Poisson, cut-off p<0.05) (CD4+ T-cells; QC method): did not reach the p<0.05 cut-off

Molecule: RMANVAENSSSDQRQ (BMP-7 epitope) [Peptide 8]
- relative risk (RR) ([1]; DR11, method not stated, p<0.0003): 6.6
- average stimulation index (SI) higher among DR11+ than among DR11− donors ([1]; method not stated, p<0.007): 2.3 fold

Molecule: RSQNRSKTPKNQEAL (BMP-7 epitope) [Peptide 3]
- relative risk (RR) ([1]; DQ2, QC, p<0.04): 0.17
- relative risk (RR) ([1]; DQ2, nQC, p<0.01): 0.13
- relative risk (RR) ([1]; DQ9, QC, p<0.003): 6.67
- relative risk (RR) ([1]; DQ9, nQC, p<0.013): 4.85
- relative risk (RR) ([1]; DR11, QC, p<0.0005): 6.25
- relative risk (RR) ([1]; DR11, nQC, p<0.005): 4.17
- average stimulation index (SI) higher among DR11+ than among DR11− donors ([1]; QC, p<0.0004): 5.8 fold

B1: BMP-7: human BMP-7 (GenBank Accession No. P18075), tested as 15-mer peptide set (protein, UniProt P18075 293-431, looked up)
Bone morphogenetic protein 7: STGSKQRSQNRSKTPKNQEALRMANVAENSSSDQRQACKKHELYVSFRDLGWQDWIIAPEGYAAYYCEGECAFPLNSYMNATNHAIVQTLVHFINPETVPKPCCAPTQLNAISVLYFDDSSNVILKKYRNMVVRACGCH
modifications: tested as overlapping 15-mer peptides
- structure value (CD4+ T-cells): 0.70
- relative immunogenicity by structure values (CD4+ T-cells; QC method): more immunogenic than BMP-14
- relative immunogenicity (CD4+ T-cells; non-QC method): more immunogenic than the BMP-14 protein
- treated patients who developed detectable anti-BMP antibodies [2]: 38%

B2: BMP-14: human BMP-14 (GenBank Accession No. P43026), tested as 15-mer peptide set (protein, UniProt P43026 382-501, looked up)
Growth/differentiation factor …: APLATRQGKRPSKNLKARCSRKALHVNFKDMGWDDWIIAPLEYEAFHCEGLCEFPLRSHLEPTNHAVIQTLMNSMDPESTPPTCCVPTRLSPISILFIDSANNVVYKQYEDMVVESCGCR
modifications: tested as overlapping 15-mer peptides
- structure value (CD4+ T-cells): 0.57
